Test results reported in ChEMBL document CHEMBL1909046, “DrugMatrix in vitro pharmacology data”.

Key:
Cytochrome P450 2C19 = Cytochrome P450 2C19 (Homo sapiens, UniProt P33261); conditions: bti-tn-5b1-4; note: in other assays of this panel Not Active means under 50% inhibition at 10 µM
Estrogen receptor = molecular target: T1, Estrogen receptor (Homo sapiens, UniProt P03372); conditions: sf9; note: in other assays of this panel Not Active means under 50% inhibition at 10 µM
T1 sequence (P03372 whole entry): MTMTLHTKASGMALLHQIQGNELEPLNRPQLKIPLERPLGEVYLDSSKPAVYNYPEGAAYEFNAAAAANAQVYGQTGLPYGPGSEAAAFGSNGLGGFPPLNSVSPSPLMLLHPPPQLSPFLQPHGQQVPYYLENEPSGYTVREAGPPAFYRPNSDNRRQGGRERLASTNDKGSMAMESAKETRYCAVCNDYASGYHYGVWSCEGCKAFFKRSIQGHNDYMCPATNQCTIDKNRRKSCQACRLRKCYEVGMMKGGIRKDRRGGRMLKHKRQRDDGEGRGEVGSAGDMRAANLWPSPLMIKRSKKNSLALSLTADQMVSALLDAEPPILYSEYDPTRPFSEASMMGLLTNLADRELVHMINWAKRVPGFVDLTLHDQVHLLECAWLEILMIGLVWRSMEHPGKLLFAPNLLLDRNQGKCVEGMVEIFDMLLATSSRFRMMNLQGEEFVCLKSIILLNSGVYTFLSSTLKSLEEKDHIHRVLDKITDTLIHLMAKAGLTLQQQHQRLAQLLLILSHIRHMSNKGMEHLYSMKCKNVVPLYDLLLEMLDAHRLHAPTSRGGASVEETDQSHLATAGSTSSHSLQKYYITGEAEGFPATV

Cytochrome P450 2C9 = Cytochrome P450 2C9 (Homo sapiens, UniProt P11712); conditions: bti-tn-5b1-4; note: in other assays of this panel Not Active means under 50% inhibition at 10 µM
Sequence of Cytochrome P450 2C9 (P11712 whole entry): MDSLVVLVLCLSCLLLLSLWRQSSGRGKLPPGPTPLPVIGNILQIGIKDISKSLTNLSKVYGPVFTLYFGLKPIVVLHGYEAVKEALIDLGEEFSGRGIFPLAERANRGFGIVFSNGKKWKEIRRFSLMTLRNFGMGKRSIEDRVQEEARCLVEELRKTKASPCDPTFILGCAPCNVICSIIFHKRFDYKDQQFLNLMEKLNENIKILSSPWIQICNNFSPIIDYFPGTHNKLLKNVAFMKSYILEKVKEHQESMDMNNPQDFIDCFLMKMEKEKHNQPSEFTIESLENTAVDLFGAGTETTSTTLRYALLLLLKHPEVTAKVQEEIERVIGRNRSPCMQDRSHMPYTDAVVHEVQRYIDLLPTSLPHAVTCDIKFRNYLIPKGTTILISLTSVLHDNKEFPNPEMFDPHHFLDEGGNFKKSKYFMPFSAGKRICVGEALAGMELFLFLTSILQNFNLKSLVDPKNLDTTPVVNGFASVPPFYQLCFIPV

[1] = DRUGMATRIX: Glutamate, Kainate radioligand binding (ligand: [3H] Kainic acid); format: cell membranes, Rattus norvegicus, Wistar, Brain, Membrane; conditions: Not Active = under 50% inhibition at 10 µM
[2] = molecular target: Sodium-dependent dopamine transporter (Homo sapiens, UniProt Q01959); experiment: DRUGMATRIX: Dopamine Transporter radioligand binding (ligand: [125I] RTI-55); format: cell membranes, CHO-K1, Membrane; conditions: cho-k1; Not Active = under 50% inhibition at 10 µM
Sequence of Sodium-dependent dopamine transporter (Q01959 whole entry): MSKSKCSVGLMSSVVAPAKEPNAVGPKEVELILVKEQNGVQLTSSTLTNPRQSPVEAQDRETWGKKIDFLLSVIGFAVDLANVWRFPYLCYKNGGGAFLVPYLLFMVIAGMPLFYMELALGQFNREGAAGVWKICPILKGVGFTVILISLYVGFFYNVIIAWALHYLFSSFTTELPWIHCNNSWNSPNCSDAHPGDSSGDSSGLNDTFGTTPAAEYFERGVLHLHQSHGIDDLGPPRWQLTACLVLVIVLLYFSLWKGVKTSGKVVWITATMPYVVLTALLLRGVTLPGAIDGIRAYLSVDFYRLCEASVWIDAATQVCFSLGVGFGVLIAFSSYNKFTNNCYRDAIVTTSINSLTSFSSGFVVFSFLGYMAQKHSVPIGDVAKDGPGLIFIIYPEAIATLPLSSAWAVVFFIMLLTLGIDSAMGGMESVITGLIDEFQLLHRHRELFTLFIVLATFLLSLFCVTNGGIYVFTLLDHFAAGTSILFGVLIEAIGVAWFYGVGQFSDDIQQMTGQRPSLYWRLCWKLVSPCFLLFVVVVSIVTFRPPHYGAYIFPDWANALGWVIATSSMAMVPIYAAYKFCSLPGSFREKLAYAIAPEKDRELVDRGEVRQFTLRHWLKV

[3] = DRUGMATRIX: beta-Lactamase enzyme inhibition (substrate: Nitrocefin); parameters: species or system Bacillus cereus; conditions: Not Active = under 50% inhibition at 10 µM
[4] = DRUGMATRIX: Potassium Channel [KATP] radioligand binding (ligand: [3H] Glyburide); format: cell membranes, Membrane; conditions: hit-t15; Not Active = under 50% inhibition at 10 µM
[5] = DRUGMATRIX: Serotonin (5-Hydroxytryptamine) 5-HT3 radioligand binding (ligand: [3H] GR-65630); format: cell membranes, Membrane; conditions: hek293; Not Active = under 50% inhibition at 10 µM
[6] = DRUGMATRIX: Glutamate, NMDA, Agonism radioligand binding (ligand: [3H] CGP-39653); format: cell membranes, Rattus norvegicus, Wistar, Cerebral cortex, Membrane; conditions: Not Active = under 50% inhibition at 10 µM
[7] = DRUGMATRIX: GABAA, Flunitrazepam, Central radioligand binding (ligand: [3H] Flunitrazepam); format: cell membranes, Rattus norvegicus, Wistar, Brain, Membrane; conditions: Not Active = under 50% inhibition at 10 µM

Sequence of Cytochrome P450 2C19 (P33261 whole entry): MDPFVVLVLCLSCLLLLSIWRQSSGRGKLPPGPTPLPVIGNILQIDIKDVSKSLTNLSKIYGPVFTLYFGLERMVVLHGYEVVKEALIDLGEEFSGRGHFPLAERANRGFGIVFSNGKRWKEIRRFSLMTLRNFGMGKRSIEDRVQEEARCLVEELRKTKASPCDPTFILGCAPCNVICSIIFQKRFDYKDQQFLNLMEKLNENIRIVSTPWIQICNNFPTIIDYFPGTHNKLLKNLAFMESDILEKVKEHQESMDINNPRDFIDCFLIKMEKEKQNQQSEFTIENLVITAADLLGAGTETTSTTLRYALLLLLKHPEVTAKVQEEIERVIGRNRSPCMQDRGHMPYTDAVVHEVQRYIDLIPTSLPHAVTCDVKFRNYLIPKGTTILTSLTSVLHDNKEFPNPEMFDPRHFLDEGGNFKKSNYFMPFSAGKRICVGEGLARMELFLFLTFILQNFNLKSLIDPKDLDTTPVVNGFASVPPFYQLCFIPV

CN1[C@@H]2CC[C@H]1C[C@@H](OC(c1ccccc1)c1ccccc1)C2 [BENZTROPINE]
Not Active: IC50 (Cytochrome P450 2C19) | Ki (Cytochrome P450 2C19) | IC50 (Estrogen receptor) | IC50 (Cytochrome P450 2C9) | Ki (Cytochrome P450 2C9)

C[C@@](Cc1ccc(O)c(O)c1)(NN)C(=O)O.O [CARBIDOPA]
Not Active: IC50 [1] | Ki [1] | IC50 [2] | IC50 [3] | Ki [3] | IC50 (Cytochrome P450 2C19) | Ki (Cytochrome P450 2C19) | IC50 [4] | Ki [4] | IC50 [5] | Ki [5] | IC50 [6] | Ki [6] | IC50 [7] | Ki [7] | IC50 (Cytochrome P450 2C9) | Ki (Cytochrome P450 2C9)

CN1CCN(C2=Nc3cc(Cl)ccc3Nc3ccccc32)CC1 [CLOZAPINE]
Not Active: IC50 (Cytochrome P450 2C19) | Ki (Cytochrome P450 2C19) | IC50 (Estrogen receptor) | IC50 (Cytochrome P450 2C9) | Ki (Cytochrome P450 2C9)

CC(C)NC[C@@H](O)COc1cccc2ccccc12 [DEXPROPRANOLOL]
Not Active: IC50 (Cytochrome P450 2C19) | Ki (Cytochrome P450 2C19) | IC50 (Cytochrome P450 2C9) | Ki (Cytochrome P450 2C9)

CC(C)NC[C@H](O)COc1cccc2ccccc12 [LEVOPROPRANOLOL]
Not Active: IC50 (Cytochrome P450 2C19) | Ki (Cytochrome P450 2C19) | IC50 (Cytochrome P450 2C9) | Ki (Cytochrome P450 2C9)

CN(C)C(=O)C(CCN1CCC(O)(c2ccc(Cl)cc2)CC1)(c1ccccc1)c1ccccc1 [LOPERAMIDE]
Not Active: IC50 (Cytochrome P450 2C19) | Ki (Cytochrome P450 2C19) | IC50 (Estrogen receptor) | IC50 (Cytochrome P450 2C9) | Ki (Cytochrome P450 2C9)

Clc1ccc(COC(Cn2ccnc2)c2ccc(Cl)cc2Cl)c(Cl)c1 (configuration not stated) [MICONAZOLE]
Not Active: IC50 (Estrogen receptor)

Oc1ccc2c3c1O[C@H]1[C@@H](O)CC[C@@]4(O)[C@@H](C2)N(CC2CCC2)CC[C@]314 [NALBUPHINE]
Not Active: IC50 [2] | IC50 (Estrogen receptor)

C[C@]12C=CC(=O)C=C1CC[C@@H]1[C@@H]2C(=O)C[C@@]2(C)[C@H]1CC[C@]2(O)C(=O)CO [PREDNISONE]
Not Active: IC50 [1] | Ki [1] | IC50 [2] | IC50 [3] | Ki [3] | IC50 [4] | Ki [4] | IC50 [5] | Ki [5] | IC50 [6] | Ki [6] | IC50 (Estrogen receptor) | IC50 [7] | Ki [7]

OCCOCCN1CCN(C2=Nc3ccccc3Sc3ccccc32)CC1 [QUETIAPINE]
Not Active: IC50 [2] | IC50 (Cytochrome P450 2C19) | Ki (Cytochrome P450 2C19) | IC50 (Cytochrome P450 2C9) | Ki (Cytochrome P450 2C9)

COC(=O)[C@H]1[C@H]2C[C@@H]3c4[nH]c5cc(OC)ccc5c4CCN3C[C@H]2C[C@@H](OC(=O)c2cc(OC)c(OC)c(OC)c2)[C@@H]1OC [RESERPINE]
Not Active: IC50 [1] | Ki [1] | IC50 [2] | IC50 [3] | Ki [3] | IC50 (Cytochrome P450 2C19) | Ki (Cytochrome P450 2C19) | IC50 [4] | Ki [4] | IC50 [5] | Ki [5] | IC50 [6] | Ki [6] | IC50 [7] | Ki [7] | IC50 (Cytochrome P450 2C9) | Ki (Cytochrome P450 2C9)

C[S+]([O-])c1ccc(-c2nc(-c3ccncc3)c(-c3ccc(F)cc3)[nH]2)cc1 (configuration not stated) [SB-203580]
Not Active: IC50 [2] | IC50 (Estrogen receptor)

O=C1C[C@@H]2OCC=C3CN4CC[C@]56c7ccccc7N1[C@H]5[C@H]2[C@H]3C[C@H]46 [STRYCHNINE]
Not Active: IC50 [1] | Ki [1] | IC50 [2] | IC50 [3] | Ki [3] | IC50 (Cytochrome P450 2C19) | Ki (Cytochrome P450 2C19) | IC50 [4] | Ki [4] | IC50 [5] | Ki [5] | IC50 [6] | Ki [6] | IC50 [7] | Ki [7]

CCCCCCCCNC(C)C(O)c1ccc(SC(C)C)cc1 (configuration not stated) [SULOCTIDIL]
Not Active: IC50 [1] | Ki [1] | IC50 [3] | Ki [3] | IC50 (Cytochrome P450 2C19) | Ki (Cytochrome P450 2C19) | IC50 [4] | Ki [4] | IC50 [5] | Ki [5] | IC50 [6] | Ki [6] | IC50 (Estrogen receptor) | IC50 [7] | Ki [7] | IC50 (Cytochrome P450 2C9) | Ki (Cytochrome P450 2C9)

O=c1[nH]c(=O)n(C2CCCO2)cc1F (configuration not stated) [TEGAFUR]
Not Active: IC50 [1] | Ki [1] | IC50 [2] | IC50 [3] | Ki [3] | IC50 (Cytochrome P450 2C19) | Ki (Cytochrome P450 2C19) | IC50 [4] | Ki [4] | IC50 [5] | Ki [5] | IC50 [6] | Ki [6] | IC50 [7] | Ki [7] | IC50 (Cytochrome P450 2C9) | Ki (Cytochrome P450 2C9)

CC(=N)S [THIOACETAMIDE]
Not Active: IC50 [1] | Ki [1] | IC50 [2] | IC50 [3] | Ki [3] | IC50 (Cytochrome P450 2C19) | Ki (Cytochrome P450 2C19) | IC50 [4] | Ki [4] | IC50 [5] | Ki [5] | IC50 [6] | Ki [6] | IC50 [7] | Ki [7] | IC50 (Cytochrome P450 2C9) | Ki (Cytochrome P450 2C9)

CC(=O)OCC(COC(C)=O)OC(C)=O [TRIACETIN]
Not Active: IC50 [1] | Ki [1] | IC50 [2] | IC50 [3] | Ki [3] | IC50 (Cytochrome P450 2C19) | Ki (Cytochrome P450 2C19) | IC50 [4] | Ki [4] | IC50 [5] | Ki [5] | IC50 [6] | Ki [6] | IC50 [7] | Ki [7] | IC50 (Cytochrome P450 2C9) | Ki (Cytochrome P450 2C9)

CN1CCN(CCCN2c3ccccc3Sc3ccc(C(F)(F)F)cc32)CC1 [TRIFLUOPERAZINE]
Not Active: IC50 [1] | Ki [1] | IC50 [2] | IC50 [3] | Ki [3] | IC50 [4] | Ki [4] | IC50 [5] | Ki [5] | IC50 [6] | Ki [6] | IC50 [7] | Ki [7]
